Data reported in patent US20070042947A1, “Agents for preventing and/or treating uppper digestive tract disorders” (Takeda Pharmaceutical Company Limited, priority 2003, published 2007).

Key:
[1] = tested on: pylorus ligated rats; assay: Amount of gastrin secretion (blood gastrin level, RIA) in pylorus ligated rats; format: in vivo, rat; details: 2 mg/kg (2000 μg/kg group) intraperitoneally; blood 3 hours after pylorus ligature; vs saline group, 8 rats
Description: After Wistar male rats (340-360 g) were fasted for 16 hours with water given ad libitum as in EXAMPLE 2 above, the animal was exposed at laparotomy under ether anesthesia and submitted to the pylorus ligature assay to close the abdomen. After hNPW23 was dissolved in saline (2 mg/ml), the solution was intraperitoneally injected (2 mg/kg). The control group was given saline. Test was performed with 8 rats in each group. Three hours after the pylorus ligature, the rat's abdomen was opened under anesthesia with Nembutal (40 mg/kg) and blood was collected through the abdominal aorta. The blood was placed in a blood tube of 7 ml (Terumo, containing EDTA), centrifuged (3000 rpm×10 min.) and stored at −40° C in lyophilized state until assay. Gastrin level in blood was assayed with Gastrin RIA KIT II (ABBOTT JAPAN). The F-assay was conducted on mean measurement values.

[2] = tested on: pylorus ligated rats; assay: Gastric fluid volume, pH, gastric acidity and acid output in pylorus ligated rats; format: in vivo, rat; details: 2 mg/kg intraperitoneally; 3 hours after pylorus ligature; mean ± SE, 8 rats
Description: After Wistar male rats (340-360 g) were fasted for 16 hours with water given ad libitum, the animal was exposed at laparotomy under ether anesthesia and submitted to the pylorus ligature assay to close the abdomen. After hNPW23 was dissolved in saline (2 mg/ml), the solution was intraperitoneally injected (2 mg/kg). The control group was given saline. Test was performed with 8 rats in each group. Three hours after the pylorus ligature, the rat's abdomen was opened under anesthesia with Nembutal (40 mg/kg, Dainippon Pharmaceutical). After ligation of the cardia, the stomach was removed. Gastric contents were collected and centrifuged (2500 rpm×10 min.). Using the supernatant, gastric fluid volume (ml), pH intragastric pH, gastric acidity (mEq/l) and total acid output (μEq/kg/h) were measured.
To 1 ml of gastric juice, 30 μl of BTB (Wako Pure Chemical) solution was added and […] NaOH solution was dropwise added to the mixture. The consumed amount of NaOH required to reach the equivalent point (pH 7.0) was measured to calculate the gastric acidity and total acid output.
The pH of gastric juice was measured using Twin pH meter B-212 (Horiba, Ltd.).
The respective measurements values were calculated according to the equation below and T-assay was conducted.
Gastric acidity (mEq/l)=0.2N NaOH×consumed amount (μl)/gastric juice (1000 μl)
Total acid output (μEq/kg/h)=gastric acidity x gastric fluid volume/weight/time

[3] = tested on: Wistar male rats; assay: Gastric acid secretion in anesthetized rat by intravenous injection of hNPW23 (stomach perfusion, NaOH titration); format: in vivo; details: 80 μM in saline, 1 ml/h for 30 minutes through the femoral vein; mean±SE, 8 rats; P 0.01 or less vs control
Description: After Wistar male rats (Nippon Charles River, weighing 320-360 g) were fasted for 16 hours with water given ad libitum, the animal was injected intraperitoneally with ethyl carbamate (Wako Pure Chemical) (1.0 g/ml/kg) and firmly secured to the operating table under anesthesia to perform laparotomy. Stomach catheter (Medtop X2-50, 3.5 mm in outer diameter and […] in inner diameter) was inserted into the stomach (2 cm) through an incision in the duodenum. After ligature at the pyloric canal, the right femoral vein was isolated to perform venous cannulation. The stomach was irrigated with distilled water (Otsuka Pharmaceutical Co., Ltd.) warmed at 37° C. and allowed to stand for about an hour. hNPW23 was dissolved in saline (Otsuka Pharmaceutical Co., Ltd.) to become 80 μM. The control group was given saline. […] Gastric acid output was determined as follows. […] After 30 μl of Bromthymol Blue indicator solution (BTB, Wako Pure Chemical) was added to each gastric juice collected, the mixture was titrated with 0.1N NaOH solution and the consumed amount of NaOH required to reach the equivalent point (the amount consumed) was determined to calculate the gastric acid output. The gastric acid output before administration of hNPW23 was measured and T-assay was conducted on a percentage (%) of changes in gastric acid outputs before and after administration. […]

“hNPW23: human GPR8 ligand peptide (hNPW23), amino acid sequence SEQ ID NO: 1; Neuropeptide W (WYKHVASPRYHTVGRAAGLLMGL; listed as Homo sapiens)” was tested, and the “gastrin level in blood” value [1] was “increased significantly”, the Gastric acidity [2] was 96.0 ± 4.2 mEq/l and the Gastric fluid volume [2] was 7.9 ± 1.2 mL. The “Intragastric pH” value [2] was 0.83 ± 0.03, the Total acid output [2] was 747.4 ± 121.5 μEq/kg/h and the “changes in gastric acid outputs (gastric acid output after administration / before administration x 100)” value [3] was 145.6±8.5%.
